According to ChEMBL document CHEMBL4715814, “Design, synthesis and biological activity evaluation of novel 4-subtituted 2-naphthamide derivatives as AcrB inhibitors” (2018):
Active and inactive are the calls of the source. The calls are words filed in the database; no cut-off is given here.

How the values were obtained:
Escherichia coli [1] = experiment: Potentiation of rifampicin-induced antibacterial activity against wild type Escherichia coli BW25113 assessed as rifampicin MIC at 128 ug/ml incubated for 18 hrs under aerobic condition by checkerboard titration assay (reference value: 16 ug/ml); format: functional; conditions: dose 128 µg/ml
Escherichia coli [2] = experiment: Potentiation of erythromycin-induced antibacterial activity against wild type Escherichia coli BW25113 assessed as erythromycin MIC at 128 ug/ml incubated for 18 hrs under aerobic condition by checkerboard titration assay (reference value: 128 ug/ml); format: functional; conditions: dose 128 µg/ml
Escherichia coli [3] = experiment: Potentiation of chloramphenicol-induced antibacterial activity against AcrB deficient Escherichia coli BW25113 assessed as chloramphenicol MIC at 256 ug/ml incubated for 18 hrs under aerobic condition by checkerboard titration assay (reference value: 2 ug/ml); format: functional; conditions: dose 256 µg/ml
Escherichia coli [4] = experiment: Potentiation of rifampicin-induced antibacterial activity against wild type Escherichia coli BW25113 assessed as rifampicin MIC at 256 ug/ml incubated for 18 hrs under aerobic condition by checkerboard titration assay (reference value: 16 ug/ml); format: functional; conditions: dose 256 µg/ml
Escherichia coli [5] = experiment: Potentiation of erythromycin-induced antibacterial activity against wild type Escherichia coli BW25113 assessed as erythromycin MIC at 256 ug/ml incubated for 18 hrs under aerobic condition by checkerboard titration assay (reference value: 128 ug/ml); format: functional; conditions: dose 256 µg/ml
Escherichia coli [6] = experiment: Potentiation of chloramphenicol-induced antibacterial activity against wild type Escherichia coli BW25113 assessed as fold reduction in chloramphenicol MIC at 256 ug/ml incubated for 18 hrs under aerobic condition by checkerboard titration assay relative to chloramphenicol MIC alone; format: functional; conditions: dose 256 µg/ml
Escherichia coli [7] = experiment: (§1) Antibacterial activity against Wild type Escherichia coli BW25113 assessed as inhibition of AcrB efflux pump by mesuring the glucose-induced nile red efflux at 500 uM preincubated with CCCP for 15 mins followed by compound addition after 15 mins nile red added and incubated for 3 hrs in shaker by fluorimetric analysis; format: functional, organism-based; conditions: time 195.0 min
Escherichia coli [8] = experiment: Potentiation of erythromycin-induced antibacterial activity against AcrB deficient Escherichia coli BW25113 assessed as erythromycin MIC at 256 ug/ml incubated for 18 hrs under aerobic condition by checkerboard titration assay (reference value: 32 ug/ml); format: functional; conditions: dose 256 µg/ml
Cell membrane [9] = experiment: Disruption of inner membrane potential in wild type Escherichia coli BW25113 at 512 ug/ml preincubated for 10 mins followed by glucose stimulation and CCCP addition by DiOC2 probe based fluorimetric analysis; format: subcellular; conditions: dose 512.0 µg/ml
Escherichia coli [10] = experiment: Potentiation of chloramphenicol-induced antibacterial activity against wild type Escherichia coli BW25113 assessed as chloramphenicol MIC at 128 ug/ml incubated for 18 hrs under aerobic condition by checkerboard titration assay (reference value: 16 ug/ml); format: functional; conditions: dose 128 µg/ml
Escherichia coli [11] = experiment: Potentiation of TPP-induced antibacterial activity against AcrB deficient Escherichia coli BW25113 assessed as TPP MIC at 256 ug/ml incubated for 18 hrs under aerobic condition by checkerboard titration assay (reference value: 256 ug/ml); format: functional; conditions: dose 256 µg/ml
Cell membrane [12] = experiment: Induction of outer membrane permeabilization in wild type Escherichia coli BW25113 assessed as increase in nitrocefin hydrolysis at 512 ug/ml measured for 30 mins in presence of CCCP by spectrophotometry analysis; format: subcellular; conditions: dose 512.0 µg/ml
Escherichia coli [13] = experiment: Potentiation of TPP-induced antibacterial activity against wild type Escherichia coli BW25113 assessed as TPP MIC at 256 ug/ml incubated for 18 hrs under aerobic condition by checkerboard titration assay (reference value: 1024 ug/ml); format: functional; conditions: dose 256 µg/ml
Escherichia coli [14] = experiment: Potentiation of TPP-induced antibacterial activity against wild type Escherichia coli BW25113 assessed as fold reduction in TPP MIC at 256 ug/ml incubated for 18 hrs under aerobic condition by checkerboard titration assay relative to TPP MIC alone; format: functional; conditions: dose 256 µg/ml
Escherichia coli [15] = experiment: Potentiation of chloramphenicol-induced antibacterial activity against wild type Escherichia coli BW25113 assessed as chloramphenicol MIC at 256 ug/ml incubated for 18 hrs under aerobic condition by checkerboard titration assay (reference value: 16 ug/ml); format: functional; conditions: dose 256 µg/ml
Escherichia coli [16] = experiment: Potentiation of TPP-induced antibacterial activity against wild type Escherichia coli BW25113 assessed as TPP MIC at 128 ug/ml incubated for 18 hrs under aerobic condition by checkerboard titration assay (reference value: 1024 ug/ml); format: functional; conditions: dose 128 µg/ml
Escherichia coli [17] = experiment: Potentiation of chloramphenicol-induced antibacterial activity against wild type Escherichia coli BW25113 assessed as chloramphenicol MIC at 512 ug/ml incubated for 18 hrs under aerobic condition by checkerboard titration assay (reference value: 16 ug/ml); format: functional; conditions: dose 512 µg/ml
Escherichia coli [18] = experiment: Potentiation of rifampicin-induced antibacterial activity against wild type Escherichia coli BW25113 assessed as rifampicin MIC at 512 ug/ml incubated for 18 hrs under aerobic condition by checkerboard titration assay (reference value: 16 ug/ml); format: functional; conditions: dose 512 µg/ml
Escherichia coli [19] = experiment: Potentiation of chloramphenicol-induced antibacterial activity against AcrB deficient Escherichia coli BW25113 assessed as chloramphenicol MIC at 512 ug/ml incubated for 18 hrs under aerobic condition by checkerboard titration assay (reference value: 2 ug/ml); format: functional; conditions: dose 512 µg/ml
Escherichia coli [20] = experiment: Potentiation of erythromycin-induced antibacterial activity against wild type Escherichia coli BW25113 assessed as erythromycin MIC at 512 ug/ml incubated for 18 hrs under aerobic condition by checkerboard titration assay (reference value: 128 ug/ml); format: functional; conditions: dose 512 µg/ml
Escherichia coli [21] = experiment: Potentiation of TPP-induced antibacterial activity against AcrB deficient Escherichia coli BW25113 assessed as TPP MIC at 512 ug/ml incubated for 18 hrs under aerobic condition by checkerboard titration assay (reference value: 256 ug/ml); format: functional; conditions: dose 512 µg/ml
Escherichia coli [22] = experiment: Potentiation of erythromycin-induced antibacterial activity against AcrB deficient Escherichia coli BW25113 assessed as erythromycin MIC at 512 ug/ml incubated for 18 hrs under aerobic condition by checkerboard titration assay (reference value: 32 ug/ml); format: functional; conditions: dose 512 µg/ml
Escherichia coli [23] = experiment: Potentiation of TPP-induced antibacterial activity against wild type Escherichia coli BW25113 assessed as TPP MIC at 512 ug/ml incubated for 18 hrs under aerobic condition by checkerboard titration assay (reference value: 1024 ug/ml); format: functional; conditions: dose 512 µg/ml
Escherichia coli [24] = experiment: as §1, with “100” for “500”; format: functional, organism-based; conditions: time 195.0 min
Escherichia coli [25] = experiment: Potentiation of chloramphenicol-induced antibacterial activity against wild type Escherichia coli BW25113 assessed as fold reduction in chloramphenicol MIC at 128 ug/ml incubated for 18 hrs under aerobic condition by checkerboard titration assay relative to chloramphenicol MIC alone; format: functional; conditions: dose 128 µg/ml
Escherichia coli [26] = experiment: Potentiation of TPP-induced antibacterial activity against AcrB deficient Escherichia coli BW25113 assessed as TPP MIC at 128 ug/ml incubated for 18 hrs under aerobic condition by checkerboard titration assay (reference value: 256 ug/ml); format: functional; conditions: dose 128 µg/ml
Escherichia coli [27] = experiment: Potentiation of erythromycin-induced antibacterial activity against wild type Escherichia coli BW25113 assessed as fold reduction in erythromycin MIC at 128 ug/ml incubated for 18 hrs under aerobic condition by checkerboard titration assay relative to erythromycin MIC alone; format: functional; conditions: dose 128 µg/ml
Escherichia coli [28] = experiment: Antibacterial activity against wild type Escherichia coli BW25113 assessed as inhibition of bacterial growth at 256 ug/ml after 18 hrs by microtitre broth dilution assay; format: functional, organism-based; conditions: dose 256.0 µg/ml
Escherichia coli [29] = experiment: Potentiation of erythromycin-induced antibacterial activity against AcrB deficient Escherichia coli BW25113 assessed as erythromycin MIC at 128 ug/ml incubated for 18 hrs under aerobic condition by checkerboard titration assay (reference value: 32 ug/ml); format: functional; conditions: dose 128 µg/ml
Escherichia coli [30] = experiment: Potentiation of chloramphenicol-induced antibacterial activity against AcrB deficient Escherichia coli BW25113 assessed as chloramphenicol MIC at 128 ug/ml incubated for 18 hrs under aerobic condition by checkerboard titration assay (reference value: 2 ug/ml); format: functional; conditions: dose 128 µg/ml
Escherichia coli [31] = experiment: Antibacterial activity against AcrB deficient Escherichia coli BW25113 assessed as inhibition of bacterial growth at 256 ug/ml after 18 hrs by microtitre broth dilution assay; format: functional, organism-based; conditions: dose 256.0 µg/ml
Escherichia coli [32] = experiment: Potentiation of chloramphenicol-induced antibacterial activity against AcrB deficient Escherichia coli BW25113 assessed as chloramphenicol MIC at 32 ug/ml incubated for 18 hrs under aerobic condition by checkerboard titration assay (reference value: 2 ug/ml); format: functional; conditions: dose 32 µg/ml
Escherichia coli [33] = experiment: Potentiation of erythromycin-induced antibacterial activity against AcrB deficient Escherichia coli BW25113 assessed as erythromycin MIC at 32 ug/ml incubated for 18 hrs under aerobic condition by checkerboard titration assay (reference value: 32 ug/ml); format: functional; conditions: dose 32 µg/ml
Escherichia coli [34] = experiment: Potentiation of TPP-induced antibacterial activity against AcrB deficient Escherichia coli BW25113 assessed as TPP MIC at 32 ug/ml incubated for 18 hrs under aerobic condition by checkerboard titration assay (reference value: 256 ug/ml); format: functional; conditions: dose 32 µg/ml

SMILES	MIC (Escherichia coli [1]) [µg/mL]	MIC (Escherichia coli [2]) [µg/mL]	MIC (Escherichia coli [3]) [µg/mL]	MIC (Escherichia coli [4]) [µg/mL]	MIC (Escherichia coli [5]) [µg/mL]	Activity (Escherichia coli [7])	MIC (Escherichia coli [8]) [µg/mL]	Activity (Cell membrane [9])	MIC (Escherichia coli [10]) [µg/mL]	MIC (Escherichia coli [11]) [µg/mL]	Activity (Cell membrane [12])	MIC (Escherichia coli [13]) [µg/mL]	MIC (Escherichia coli [15]) [µg/mL]	MIC (Escherichia coli [16]) [µg/mL]	MIC (Escherichia coli [17]) [µg/mL]	MIC (Escherichia coli [19]) [µg/mL]	MIC (Escherichia coli [20]) [µg/mL]	MIC (Escherichia coli [21]) [µg/mL]	MIC (Escherichia coli [22]) [µg/mL]	MIC (Escherichia coli [23]) [µg/mL]	other results
NC(=O)c1cc(OCCNCc2ccc(O)cc2)c2ccccc2c1	8	128	2	8	128	inactive	32	inactive	8	256	inactive	256	4	1020	–	–	–	–	–	–	fold change (FC) (Escherichia coli [6]): 4; fold change (FC) (Escherichia coli [14]): 4
CC(C)CCOc1cc(C(N)=O)cc2ccccc12	–	–	–	16	64	–	–	–	–	–	–	512	8	–	4	2	32	256	32	256	MIC (Escherichia coli [18]): 16 µg/mL
O=C(NC1CCCCC1)c1cc(OCc2ccccc2)c2ccccc2c1	–	–	–	16	64	–	–	–	–	–	–	1020	16	–	16	2	32	256	32	1020	Activity (Escherichia coli [24]): Active
NC(=O)c1cc(OCCNC2CCCCC2)c2ccccc2c1	8	16	1	–	–	–	8	inactive	4	128	Active	–	–	1020	–	–	–	–	–	–	fold change (FC) (Escherichia coli [25]): 8; MIC (Escherichia coli [26]): 256 µg/mL; fold change (FC) (Escherichia coli [27]): 8; Activity (Escherichia coli [28]): Active; Activity (Escherichia coli [24]): Active; MIC (Escherichia coli [29]): 16 µg/mL; MIC (Escherichia coli [30]): 2 µg/mL; Activity (Escherichia coli [31]): Active
CC(C)CCOc1cc(C(=O)NCCc2ccccc2)cc2ccccc12	16	64	–	16	32	inactive	–	inactive	8	–	inactive	1020	4	1020	–	–	–	–	–	–	MIC (Escherichia coli [32]): 2 µg/mL; MIC (Escherichia coli [33]): 2 µg/mL; MIC (Escherichia coli [34]): 32 µg/mL
